# Assay results: patent US20160122406A1, “ANALOGS OF PITUITARY ADENYLATE CYCLASE-ACTIVATING POLYPEPTIDE (PACAP) AND METHODS FOR THEIR USE” (THE ADMINISTRATORS OF THE TULANE EDUCATIONAL FUND, priority 2013, published 2016)
# “Also recorded” adds a separate entry of the source. Square brackets hold non-standard residues; d marks the D form. * marks the point of attachment. Iac = imidazole-4-acrylic acid, O=C(/C=C/c1c[nH]cn1)*; Acetyl(2-(4-imidazolyl)) = O=C(Cc1c[nH]cn1)*
# System: Male Sprague-Dawley rats
# Test: Arterial blood pressure and heart rate after intravenous injection in anesthetized rats
# Format: in vivo
# Conditions: 10 micrograms i.v.; for heart rate before intravenous injection: the 'from' value; for heart rate after intravenous injection: the 'to' value; for change in arterial blood pressure / change in arterial pulse pressure: isoflurane-anesthetized rats
# Text: FIG. 9 is a graph showing the changes in arterial blood pressure caused by [Iaa^1]PACAP38, [Iaa^1,D-Ser^2]PACAP38, [Iaa^1,Ala^22]PACAP38, and [Iaa^1,D-Ser^2,Ala^22]PACAP38. Male Sprague-Dawley rats (300-325 g) were anesthetized with 5% isoflurane for induction and then intubated. The rats were then ventilated (Hallowell EMC) with 100% O2 and 1-2% isoflurane. A PE-50 cannula was then placed in the femoral artery and connected to a pressure transducer. The arterial pressure signal was sent to an electronic chart recorder (BioPac). Heart rate was electronically derived from the arterial pressure signal. A similar PE-50 cannula was also placed in the femoral vein to allow for intravenous injection of the test peptides. Ten micrograms of the test peptides were injected intravenously in 100 μl of 0.9% NaCl in a random order and the cannula was immediately flushed with 100 μl of 0.9% NaCl. Changes in blood pressure and heart rate were calculated from the electronic record. […] Intravenous injection of [Iaa1]PACAP38 or [Iaa1,Ala22]PACAP38 also produced an increase in the heart rate from 378 bpm to 425 bpm or from 415 bpm to 440 bpm, respectively.
# FIG. 10 is a graph showing the changes in arterial blood pressure caused by [Iac^1]PACAP38, [Iac^1,Ala^22]PACAP38, [Iac^1,D-Ser^2,Ala^22]PACAP38, and [Iaa^1,Ala^16,17,D-Lys^38]PACAP38. Male Sprague-Dawley rats (300-325 g) were anesthetized with 5% isoflurane for induction and then intubated. The rats were then ventilated (Hallowell EMC) with 100% O2 and 1-2% isoflurane. A PE-50 cannula was then placed in the femoral artery and connected to a pressure transducer. The arterial pressure signal was sent to an electronic chart recorder (BioPac). Heart rate was electronically derived from the arterial pressure signal. A similar PE-50 cannula was also placed in the femoral vein to allow for intravenous injection of the test peptides. Ten micrograms of the test peptides were injected intravenously in 100 μl of 0.9% NaCl in a random order and the cannula was immediately flushed with 100 μl of 0.9% NaCl. Changes in blood pressure and heart rate were calculated from the electronic record. Intravenous injection of [Iac^1,Ala^22]PACAP38 or [Iac^1,D-Ser^2,Ala^22]PACAP38 produced an increase in the heart rate from 416 bpm to 435 bpm or from 420 bpm to 441 bpm, respectively.
# PACAP38 is a directly-acting arterial vasodilator and an indirectly-acting arterial vasoconstrictor. The rapid vasodilator response to intravenous administration of PACAP38 is due to stimulation of PAC1, VPAC1 and VPAC2 receptors in the blood vessels, while the slightly delayed vasoconstrictor response is mainly due to stimulation of PAC1 receptors in the adrenal medulla and the subsequent release of adrenal catecholamines. […] The critical parameter for picking a PACAP38 analog for treating a specific disease is not potency but therapeutic index.
Substance,heart rate before intravenous injection [bpm],heart rate after intravenous injection [bpm],change in arterial blood pressure,pattern of the arterial blood pressure response (compared with other peptides),change in the heart rate (in words),change in arterial pulse pressure,change in arterial blood pressure (D-Lys38]PACAP38),change in arterial pulse pressure (D-Lys38]PACAP38),duration of the arterial blood pressure response (compared with [Iaa1]PACAP38)
"Iac Ser Asp Gly Ile Phe Thr Asp Ser Tyr Ser Arg Tyr Arg Lys Gln Met Ala Val Lys Lys Ala Leu Ala Ala Val Leu Gly Lys Arg Tyr Lys Gln Arg Val Lys Asn Lys-NH2 (Iac-SDGIFTDSYSRYRKQMAVKKALAAVLGKRYKQRVKNK-NH2) [[Iac^1,Ala^22]PACAP38]",416,435,–,–,–,–,–,–,–
"Iac D-Ser Asp Gly Ile Phe Thr Asp Ser Tyr Ser Arg Tyr Arg Lys Gln Met Ala Val Lys Lys Ala Leu Ala Ala Val Leu Gly Lys Arg Tyr Lys Gln Arg Val Lys Asn Lys-NH2 (Iac-[dS]DGIFTDSYSRYRKQMAVKKALAAVLGKRYKQRVKNK-NH2) [[Iac^1,D-Ser^2,Ala^22]PACAP38]",420,441,–,–,–,–,–,–,–
"Iaa D-Ser Asp Gly Ile Phe Thr Asp Ser Tyr Ser Arg Tyr Arg Lys Gln Met Ala Val Lys Lys Ala Leu Ala Ala Val Leu Gly Lys Arg Tyr Lys Gln Arg Val Lys Asn Lys-NH2 ({Acetyl(2-(4-imidazolyl))}-[dS]DGIFTDSYSRYRKQMAVKKALAAVLGKRYKQRVKNK-NH2; SMILES CC[C@H](C)[C@H](NC(=O)CNC(=O)[C@H](CC(=O)O)NC(=O)[C@@H](CO)NC(=O)Cc1c[nH]cn1)C(=O)N[C@@H](Cc1ccccc1)C(=O)N[C@H](C(=O)N[C@@H](CC(=O)O)C(=O)N[C@@H](CO)C(=O)N[C@@H](Cc1ccc(O)cc1)C(=O)N[C@@H](CO)C(=O)N[C@@H](CCCNC(=N)N)C(=O)N[C@@H](Cc1ccc(O)cc1)C(=O)N[C@@H](CCCNC(=N)N)C(=O)N[C@@H](CCCCN)C(=O)N[C@@H](CCC(N)=O)C(=O)N[C@@H](CCSC)C(=O)N[C@@H](C)C(=O)N[C@H](C(=O)N[C@@H](CCCCN)C(=O)N[C@@H](CCCCN)C(=O)N[C@@H](C)C(=O)N[C@@H](CC(C)C)C(=O)N[C@@H](C)C(=O)N[C@@H](C)C(=O)N[C@H](C(=O)N[C@@H](CC(C)C)C(=O)NCC(=O)N[C@@H](CCCCN)C(=O)N[C@@H](CCCNC(=N)N)C(=O)N[C@@H](Cc1ccc(O)cc1)C(=O)N[C@@H](CCCCN)C(=O)N[C@@H](CCC(N)=O)C(=O)N[C@@H](CCCNC(=N)N)C(=O)N[C@H](C(=O)N[C@@H](CCCCN)C(=O)N[C@@H](CC(N)=O)C(=O)N[C@@H](CCCCN)C(N)=O)C(C)C)C(C)C)C(C)C)[C@@H](C)O) [[Iaa^1,D-Ser^2,Ala^22]PACAP38]",410,457,slight increase; also recorded: slightly increased,expected physiological signature of a highly selective PAC1 receptor agonist,–,–,–,–,–
"Iaa Ser Asp Gly Ile Phe Thr Asp Ser Tyr Ser Arg Tyr Arg Lys Ala Ala Ala Val Lys Lys Tyr Leu Ala Ala Val Leu Gly Lys Arg Tyr Lys Gln Arg Val Lys Asn D-Lys-NH2 ({Acetyl(2-(4-imidazolyl))}-SDGIFTDSYSRYRKAAAVKKYLAAVLGKRYKQRVKN[dK]-NH2; SMILES CC[C@H](C)[C@H](NC(=O)CNC(=O)[C@H](CC(=O)O)NC(=O)[C@H](CO)NC(=O)Cc1c[nH]cn1)C(=O)N[C@@H](Cc1ccccc1)C(=O)N[C@H](C(=O)N[C@@H](CC(=O)O)C(=O)N[C@@H](CO)C(=O)N[C@@H](Cc1ccc(O)cc1)C(=O)N[C@@H](CO)C(=O)N[C@@H](CCCNC(=N)N)C(=O)N[C@@H](Cc1ccc(O)cc1)C(=O)N[C@@H](CCCNC(=N)N)C(=O)N[C@@H](CCCCN)C(=O)N[C@@H](C)C(=O)N[C@@H](C)C(=O)N[C@@H](C)C(=O)N[C@H](C(=O)N[C@@H](CCCCN)C(=O)N[C@@H](CCCCN)C(=O)N[C@@H](Cc1ccc(O)cc1)C(=O)N[C@@H](CC(C)C)C(=O)N[C@@H](C)C(=O)N[C@@H](C)C(=O)N[C@H](C(=O)N[C@@H](CC(C)C)C(=O)NCC(=O)N[C@@H](CCCCN)C(=O)N[C@@H](CCCNC(=N)N)C(=O)N[C@@H](Cc1ccc(O)cc1)C(=O)N[C@@H](CCCCN)C(=O)N[C@@H](CCC(N)=O)C(=O)N[C@@H](CCCNC(=N)N)C(=O)N[C@H](C(=O)N[C@@H](CCCCN)C(=O)N[C@@H](CC(N)=O)C(=O)N[C@H](CCCCN)C(N)=O)C(C)C)C(C)C)C(C)C)[C@@H](C)O) [[Iaa^1,Ala^16,17,D-Lys^38]PACAP38]",–,–,large and prolonged decrease,–,large decrease,large and prolonged decrease,large decrease,large decrease,much longer
"Iaa Ser Asp Gly Ile Phe Thr Asp Ser Tyr Ser Arg Tyr Arg Lys Gln Met Ala Val Lys Lys Ala Leu Ala Ala Val Leu Gly Lys Arg Tyr Lys Gln Arg Val Lys Asn Lys-NH2 ({Acetyl(2-(4-imidazolyl))}-SDGIFTDSYSRYRKQMAVKKALAAVLGKRYKQRVKNK-NH2; SMILES CC[C@H](C)[C@H](NC(=O)CNC(=O)[C@H](CC(=O)O)NC(=O)[C@H](CO)NC(=O)Cc1c[nH]cn1)C(=O)N[C@@H](Cc1ccccc1)C(=O)N[C@H](C(=O)N[C@@H](CC(=O)O)C(=O)N[C@@H](CO)C(=O)N[C@@H](Cc1ccc(O)cc1)C(=O)N[C@@H](CO)C(=O)N[C@@H](CCCNC(=N)N)C(=O)N[C@@H](Cc1ccc(O)cc1)C(=O)N[C@@H](CCCNC(=N)N)C(=O)N[C@@H](CCCCN)C(=O)N[C@@H](CCC(N)=O)C(=O)N[C@@H](CCSC)C(=O)N[C@@H](C)C(=O)N[C@H](C(=O)N[C@@H](CCCCN)C(=O)N[C@@H](CCCCN)C(=O)N[C@@H](C)C(=O)N[C@@H](CC(C)C)C(=O)N[C@@H](C)C(=O)N[C@@H](C)C(=O)N[C@H](C(=O)N[C@@H](CC(C)C)C(=O)NCC(=O)N[C@@H](CCCCN)C(=O)N[C@@H](CCCNC(=N)N)C(=O)N[C@@H](Cc1ccc(O)cc1)C(=O)N[C@@H](CCCCN)C(=O)N[C@@H](CCC(N)=O)C(=O)N[C@@H](CCCNC(=N)N)C(=O)N[C@H](C(=O)N[C@@H](CCCCN)C(=O)N[C@@H](CC(N)=O)C(=O)N[C@@H](CCCCN)C(N)=O)C(C)C)C(C)C)C(C)C)[C@@H](C)O) [[Iaa^1,Ala^22]PACAP38]",415,440,large decrease,–,–,–,–,–,–
